Molecular target: T1, Tre-C04 (TMBP-cpGFP biosensor; T. litoralis D-trehalose/D-maltose-binding protein) (Thermococcus litoralis, UniProt Q7LYW7)
T1 construct: gene malE; residues 46-450 of TMBP fused to five N-terminal residues of mature E. coli MBP, codon-optimised; expressed in E. coli Tuner, Ni-NTA purified
Assay: cpGFP fluorescence dose-response, purified biosensor, four-parameter fit
Details: 500 nM protein; PBS; 0-50 μM sugar; Ex 485 / Em 515 nm

T1 sequence (Q7LYW7 374-450): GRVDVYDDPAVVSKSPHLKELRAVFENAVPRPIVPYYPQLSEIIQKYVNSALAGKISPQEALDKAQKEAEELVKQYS
T1 sequence (Q7LYW7 46-373): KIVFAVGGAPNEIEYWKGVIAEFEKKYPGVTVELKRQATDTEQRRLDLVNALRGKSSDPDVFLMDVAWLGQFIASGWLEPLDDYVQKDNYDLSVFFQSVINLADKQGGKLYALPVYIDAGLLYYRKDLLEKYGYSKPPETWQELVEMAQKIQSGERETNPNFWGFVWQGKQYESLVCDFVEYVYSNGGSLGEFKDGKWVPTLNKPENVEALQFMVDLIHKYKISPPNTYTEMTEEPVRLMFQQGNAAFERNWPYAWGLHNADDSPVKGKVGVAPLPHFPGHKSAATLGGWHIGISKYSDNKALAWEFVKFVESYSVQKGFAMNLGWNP

Row | Kd [nM] | SMILES
1 | 81 ± 1 | OC[C@H]1O[C@H](O[C@H]2[C@H](O)[C@@H](O)C(O)O[C@@H]2CO)[C@H](O)[C@@H](O)[C@@H]1O (some centres unmarked) [maltose]
2 | 53 ± 1 | OC[C@H]1O[C@H](O[C@H]2O[C@H](CO)[C@@H](O)[C@H](O)[C@H]2O)[C@H](O)[C@@H](O)[C@@H]1O [trehalose]

Source: PMC4974565, “Rapid construction of metabolite biosensors using domain-insertion profiling” (Nature Communications, 2016)
